Measured values as given in patent US11419913B2, “Pharmaceutical compositions for inhibiting inflammatory cytokines” (S.I.S. SHULOV INNOVATIVE SCIENCE LTD., priority 2018, dated 2022).
≈ marks a conversion by molar mass, not a printed value. Counter-ions that a name gives are not always drawn. Where a SMILES comes first, the peptide text is derived from it. [ ]: non-standard residue; d: D form. The star is where a group is joined. pGlu = O=C1CC[C@@H](C(=O)O)N1; Octanoyl = CCCCCCCC(=O)*

Key:
[1] = Oxazolone-induced atopic dermatitis mouse model, tolerability and bodyweights
Description: Method: Animals were sensitized by topical administration of oxazolone 2% in ethanol on the back at Day 0 after shaving and depilation of the animals (sensitization phase). Then a challenge was performed one week later by topical administration of oxazolone 1% in ethanol on the back and on right ear every 2 days at 10 occasions namely for total 3 weeks. The tested compounds were applied during the challenge phase every 2 days via the topical route as ready to use cream formulations. The surface of application was the same as for challenge (back+ear). 100 μL were deposited on the back and the back was smoothly massaged. Then, remaining formulation on finger glove was deposited on the internal face of the ear. Every other day, back skin and ears thickness were measured using caliper; and the following clinical scores were recorded from back skin: erythema and scaling. Animals were also weighed every other day (approximate bodyweights of a mouse at startup is about 20 g).
The formulations used for topical administration of the tested compound were: ZEP3 1% cream having pH 7.1 and comprising: Propylene glycol, Polysorbate 80, Edetate Disodium, Silicon dioxide (syloid), Methylparaben, White petrolatum, Isopropyl Myristate, Cetyl Alcohol and Glyceryl Monostearate. ZEP3Na 1% cream having pH 8.0 and comprising: Propylene glycol, Polysorbate 80, Edetate Disodium, Silicon dioxide (syloid), Methylparaben, White petrolatum, Isopropyl Myristate, Cetyl Alcohol and Glyceryl Monostearate. ZEP4 1% cream having pH 4.5 and comprising: Propylene glycol, Glycerin, Polysorbate 80, EDTA Disodium, Xanthan Gum, Silicon dioxide (syloid), Methylparaben, White petrolatum, Isopropyl Myristate, Cetyl Alcohol, Stearyl Alcohol, and Glyceryl Monostearate (kolliwax).

[2] = tested on: oxazolone-induced atopic dermatitis (AD) mouse models; test: Oxazolone-induced atopic dermatitis mouse model, clinical lesions; format: in vivo
Description: The effect of topical administration of ZEP3 (SEQ ID NO: 1), and its sodium salt form (ZEP3Na), and ZEP4 (SEQ ID NO: 2) was evaluated in oxazolone-induced atopic dermatitis (AD) mouse models. This model is widely used and well described in literature (Avci et al. 2013 Expert Opin Drug Discov. 8, 331-355; Petersen T. K. 2006, Basic Clin. Pharmacol. Toxicol. 99, 104-115) as an accepted animal model for evaluating drugs for AD therapy in humans.

physchem = details: water
CMC type arthritis = test: Treatment of CMC arthritis of the big toe in a subject; format: in vivo, human; details: 0.5% cream applied on the swollen area 5 times a day
From the text: Their toe was swollen, red, and so painful that it prevented them from walking. ZEP3 sodium salt at 0.5% cream was applied on the swollen area 5 times a day.

TNF alpha = TNF alpha secretion in LPS treated human keratinocytes (ELISA); format: cell-based; details: for TNFα: ZEP3Na without DMSO; for Fold Change: refers to TNF-α concentration in sample #2; for % Inhibition: vs corresponding control group without peptide
Description: Methods: SCCE020 cells (EpiGRO™ Human Epidermal Keratinocytes) were grown in complete growth medium (EpiGRO™ Human Keratinocytes Complete Medium; Millipore Cat. #SCMK001) for 4 passages. At passage 5, cells were seeded (3*10^5 cells/well) in triplicates in a volume of 1 ml complete growth medium per well. Additional 3 control wells contained only medium without cells. Upon adherence, cell medium was replaced by basal medium containing L-Glutamine without supplements (starvation medium) and cells were starved overnight. The next day, 24 hours after seeding, the cells were treated with ZEP3 or ZEP3Na or appropriate diluent (PBS or DMSO). After 4 hours of incubation, LPS (from E. Coli 055: B5; Sigma Cat. #L6529-1MG) was added to the wells in final concentration of 20 or 30 μg/ml.
Cells were incubated for 24 hours in tissue culture incubator. After collecting cell supernatants from all wells, cells from treatment groups: 1, 2, 3, 8, 9, 10, 13, 14 (without DMSO groups) were pelleted and stored at −80° C. for further analyses. The cells were collected from as following: upon supernatants collection, the wells were rinsed with trypsin, then incubated with trypsin until they detached from the plate surface, centrifuged, washed with PBS and stored as a cell pellet. TNF-α concentration in the supernatants was measured by ELISA (Quantikine HS ELISA; R&D Systems Cat. #HSTA00D), in 5 replicates.
TNF alpha concentration in the samples was calculated according to the standard curve trend line equation: =0.063x+0.1718. Percent inhibition of TNF alpha production was calculated in each treatment group in comparison to the corresponding control group (same conditions, without peptide).

[3] = peptide 0.02 mg/ml, LPS 20 μg/ml
[4] = peptide 0.2 mg/ml, LPS 20 μg/ml
[5] = peptide 0.2 mg/ml, LPS 30 μg/ml
[6] = peptide 0.4 mg/ml, LPS 20 μg/ml

C[C@H]1C[C@H]2[C@@H]3CCC4=CC(=O)C=C[C@]4(C)[C@@]3(F)[C@@H](O)C[C@]2(C)[C@@]1(O)C(=O)CO [Betamethasone, reference compound]
bodyweight loss ([1]; topical, 2.5 mg/kg): 8-10% | Back skin thickness decrease ([2]; day 28, topical, 2.5 mg/kg): 40%

CCCCCCCC(=O)NCCCC[C@H](NC(=O)[C@H](Cc1c[nH]c2ccccc12)NC(=O)[C@H](CC(N)=O)NC(=O)[C@@H]1CCC(=O)N1)C(=O)O [ZEP3Na, pGlu-Asn-Trp-Lys(Octanoyl)-OH.nNa] ([pGlu]NWK(Octanoyl)-OH)
tolerability ([1]; 50 mg/kg topical to atopic dermatitis induced mice): well tolerated | Bodyweights in comparison to the excipient ([1]; day 8 to day 28): behaved normally | solubility (physchem): 50 mg/mL (≈ 73.1 mM) | time to relief reported by the subject (CMC type arthritis): within one day | time to resolution of the condition (CMC type arthritis): 3 to 4 days | Scaling: period of reduction ([2]; 1% cream topical, 50 mg/kg, scaling score of back skin): from days 14 to 24 | Right ear thickness, significant difference in comparison to control ([2]; days 18, 20 and 22): −18.4 to −22.7% | Erythema scoring: days with a significant difference ([2]; vs control group): day 24 | total score: days with significant difference ([2]; vs control group): days 14, 18, 20 and 22 | TNF alpha levels / production in LPS treated human keratinocytes (in words) (TNF alpha; compared with cells stimulated with LPS alone): dose dependent inhibition | TNFα (TNF alpha; peptide 0.02 mg/ml, LPS 20 μg/ml, ZEP3 in 0.025% DMSO): 9.2 pg/mL | Fold Change (TNF alpha; [3]): 3.3 | % Inhibition (TNF alpha; [3]): 26% | TNFα (TNF alpha; peptide 0.2 mg/ml, LPS 20 μg/ml, ZEP3 in 0.05% DMSO): 6.7 pg/mL | Fold Change (TNF alpha; [4]): 2.4 | % Inhibition (TNF alpha; [4]): 46% | TNFα (TNF alpha; peptide 0.2 mg/ml, LPS 30 μg/ml, ZEP3 in 0.10% DMSO): 13.1 pg/mL | Fold Change (TNF alpha; [5]): 4.7 | % Inhibition (TNF alpha; [5]): 38% | TNFα (TNF alpha; peptide 0.4 mg/ml, LPS 20 μg/ml, ZEP3 in 0.10% DMSO): 5.9 pg/mL | Fold Change (TNF alpha; [6]): 2.1 | % Inhibition (TNF alpha; [6]): 52%

C[C@@H](O)[C@H](NC(=O)[C@H](Cc1c[nH]c2ccccc12)NC(=O)[C@H](CC(N)=O)NC(=O)[C@@H]1CCC(=O)N1)C(=O)O [ZEP4 sodium salt, pGlu-Asn-Trp-Thr-OH.nNa] (HELM PEPTIDE1{[Glp].N.W.T}$$$$V2.0)
solubility (physchem): 50 mg/mL
